The values below come from patent US20230019491A1, “PYRIMIDINE TBK/IKKe INHIBITOR COMPOUNDS AND USES THEREOF” (Merck Patent GmbH, priority 2017, published 2023).

Where a name gives a salt, the structure may show the parent alone. A value given as a limit tells only on which side of the number the result lay.

In one assay the target is T1, TBK1 (Homo sapiens, UniProt Q9UHD2).
T1 sequence (Q9UHD2 1-729): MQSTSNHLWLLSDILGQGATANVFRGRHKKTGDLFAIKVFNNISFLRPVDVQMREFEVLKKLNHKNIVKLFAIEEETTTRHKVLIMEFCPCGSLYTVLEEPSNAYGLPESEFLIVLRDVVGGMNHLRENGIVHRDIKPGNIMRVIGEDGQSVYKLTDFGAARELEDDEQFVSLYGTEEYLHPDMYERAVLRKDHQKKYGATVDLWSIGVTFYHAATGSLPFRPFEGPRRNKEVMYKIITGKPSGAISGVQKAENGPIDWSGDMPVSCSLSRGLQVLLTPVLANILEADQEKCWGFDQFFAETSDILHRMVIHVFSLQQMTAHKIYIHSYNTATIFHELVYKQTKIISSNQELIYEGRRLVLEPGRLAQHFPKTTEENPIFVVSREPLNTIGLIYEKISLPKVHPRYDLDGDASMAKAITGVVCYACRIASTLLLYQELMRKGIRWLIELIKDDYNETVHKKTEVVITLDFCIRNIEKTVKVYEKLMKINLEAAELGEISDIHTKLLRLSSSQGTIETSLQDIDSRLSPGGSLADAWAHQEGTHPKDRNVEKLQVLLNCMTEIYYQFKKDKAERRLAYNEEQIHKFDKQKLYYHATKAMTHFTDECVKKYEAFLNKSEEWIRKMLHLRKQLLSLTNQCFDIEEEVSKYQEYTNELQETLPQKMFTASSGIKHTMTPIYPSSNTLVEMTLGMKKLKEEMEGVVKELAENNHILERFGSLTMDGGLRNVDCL
Put plainly: TBK biochemical assay. As to conditions: 10 point 1:4 dose response, 30 uM top concentration, 90 min at 25° C., LabChip EZ Reader II; read-out: TBK1_IC50. Put shortly:
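Read-out was a Caliper LabChip mobility-shift assay, run after a 90-min, 25 °C reaction of TBK1 with substrate and compounds, quenched with stop buffer. Control wells received staurosporine at 10 uM final.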

Another assay has as its target T2, IKKε (Homo sapiens, UniProt Q14164).
T2 sequence (Q14164 1-716): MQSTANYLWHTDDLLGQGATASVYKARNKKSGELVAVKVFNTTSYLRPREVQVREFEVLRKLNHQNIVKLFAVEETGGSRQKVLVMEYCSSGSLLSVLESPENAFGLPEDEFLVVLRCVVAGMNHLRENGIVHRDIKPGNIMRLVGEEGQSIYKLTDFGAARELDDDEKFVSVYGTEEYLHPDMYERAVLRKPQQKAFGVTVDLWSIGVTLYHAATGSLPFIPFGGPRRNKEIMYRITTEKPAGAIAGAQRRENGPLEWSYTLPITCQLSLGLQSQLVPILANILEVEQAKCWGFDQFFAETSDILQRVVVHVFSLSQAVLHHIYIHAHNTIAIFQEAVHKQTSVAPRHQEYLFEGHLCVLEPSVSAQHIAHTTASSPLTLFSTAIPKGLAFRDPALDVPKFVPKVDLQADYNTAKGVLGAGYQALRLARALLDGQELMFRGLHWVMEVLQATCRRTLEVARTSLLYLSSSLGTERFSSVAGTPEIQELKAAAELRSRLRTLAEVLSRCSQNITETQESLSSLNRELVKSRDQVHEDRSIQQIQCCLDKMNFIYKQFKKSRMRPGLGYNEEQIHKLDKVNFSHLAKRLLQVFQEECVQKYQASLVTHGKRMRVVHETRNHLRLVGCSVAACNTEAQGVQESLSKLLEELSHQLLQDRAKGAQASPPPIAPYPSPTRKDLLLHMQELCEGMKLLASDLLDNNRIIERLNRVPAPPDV
Briefly: IKKε biochemical assay. As to conditions: 10 point 1:4 dose response, 30 uM top concentration, 90 min at 25° C., LabChip EZ Reader II; read-out: IKKε_IC50. In short, it runs like this: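 Mobility-shift LabChip read-out followed a 90 min, 25° C. reaction of IKKε with substrate and test compound, with DMSO held at 1% final. Reactions were ended with stop buffer. Wells with 10 uM final staurosporine defined complete inhibition, and DMSO-only wells the uninhibited level.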

In the case of `COc1nc(Nc2nccc(-c3ccc(OC4CCOCC4)c(C#N)c3)n2)ccc1N(C)CC(=O)N(C)C` [Example 35, 2-[[6-([4-[3-cyano-4-(oxan-4-yloxy)phenyl]pyrimidin-2-yl]amino)-2-methoxypyridin-3-yl](methyl)amino]-N,N-dimethylacetamide hydrochloride], the IC50 on TBK1 and on IKKε was below 100 nM each time.

`COc1nc(Nc2nccc(-c3ccc(OC4CCOCC4)c(C#N)c3)n2)ccc1C(=O)NC1CCN(C)CC1` [Example 14, 6-([4-[3-cyano-4-(oxan-4-yloxy)phenyl]pyrimidin-2-yl]amino)-2-methoxy-N-(1-methylpiperidin-4-yl)pyridine-3-carboxamide]: the IC50 on TBK1 and at IKKε was below 100 nM in each case.

Take `CC(O)C(=O)N1CCC(Oc2ccc(-c3nc(Nc4ccc(N5CCN(C6COC6)CC5)cc4)ncc3F)cc2C#N)C(F)(F)C1` (stereo not drawn) [Example 299, 2-{[3,3-difluoro-1-(2-hydroxypropanoyl)piperidin-4-yl]oxy}-5-[5-fluoro-2-({4-[4-(oxetan-3-yl)piperazin-1-yl]phenyl}amino)pyrimidin-4-yl]benzonitrile]: the IC50 at TBK1 and on IKKε was below 100 nM throughout.

For the compound `COc1nc(Nc2nccc(-c3ccc(OC4CCOCC4)c(C#N)c3)n2)ccc1C(=O)NC1CN2CCC1CC2` (stereo not drawn) [Example 21, 6-((4-(3-cyano-4-((tetrahydro-2H-pyran-4-yl)oxy)phenyl)pyrimidin-2-yl)amino)-2-methoxy-N-(quinuclidin-3-yl)nicotinamide], the IC50 at TBK1 and on IKKε was below 100 nM each time.

As to `COc1nc(Nc2nccc(-c3ccc(O[C@H]4CCN(C(=O)[C@H](C)O)C[C@H]4F)c(C#N)c3)n2)ccc1C1CCN(C2COC2)CC1` [Example 191, 2-[(3R,4S)-3-Fluoro-1-((S)-2-hydroxy-propionyl)-piperidin-4-yloxy]-5-[2-(2-methoxy-1′-oxetan-3-yl-1′,2′,3′4′,5′,6′-hexahydro-[3,4′]bipyridinyl-6-ylamino)-pyrimidin-4-yl]-benzonitrile], the IC50 on TBK1 and at IKKε was below 100 nM throughout.

As for `COc1nc(Nc2nccc(-c3ccc(OC4CCOCC4)c(C#N)c3)n2)ccc1C(=O)N1CC2CCC1CN2C` (stereo not drawn) [Example 18, 5-(2-[[6-methoxy-5-([5-methyl-2,5-diazabicyclo[2.2.2]octan-2-yl]carbonyl)pyridin-2-yl]amino]pyrimidin-4-yl)-2-(oxan-4-yloxy)benzonitrile], the IC50 at TBK1 and on IKKε was below 100 nM throughout.

Regarding `COc1nc(Nc2ncc(F)c(-c3ccc(OC4CCN(C(=O)[C@H](C)O)CC4(F)F)c(C#N)c3)n2)ccc1N1CCN(C2COC2)CC1` (stereo partly drawn) [Example 287, 2-([3,3-difluoro-1-[(2S)-2-hydroxypropanoyl]piperidin-4-yl]oxy)-5-[5-fluoro-2-([6-methoxy-5-[4-(oxetan-3-yl)piperazin-1-yl]pyridin-2-yl]amino)pyrimidin-4-yl]benzonitrile], the IC50 at TBK1 and on IKKε was below 100 nM throughout.

Take `COc1nc(Nc2ncc(F)c(-c3ccc(OC4CCN(C(=O)C(C)O)CC4(F)F)c(C#N)c3)n2)ccc1C1CCN(C2COC2)CC1` (stereo not drawn) [Example 294, 2-{[33-difluoro-1-(2-hydroxypropanoyl)piperidin-4-yl]oxy}-5-[5-fluoro-2-({6-methoxy-5-[1-(oxetan-3-yl)piperidin-4-yl]pyridin-2-yl}amino)pyrimidin-4-yl]benzonitrile]: the IC50 on TBK1 and at IKKε was below 100 nM throughout.

Take `COc1nccc(Nc2nccc(-c3ccc(OC4CCNCC4(F)F)c(C#N)c3)n2)n1` (stereo not drawn) [Example 232, 2-(3,3-Difluoro-piperidin-4-yloxy)-5-[2-(2-methoxy-pyrimidin-4-ylamino)-pyrimidin-4-yl]-benzonitrile]: the IC50 on TBK1 and on IKKε was 100 to 1000 nM throughout.

Regarding `COc1nc(Nc2nccc(-c3ccc(OC4(C)CCN(C(=O)[C@H](C)O)CC4)c(C#N)c3)n2)ccc1N1CCN(C2COC2)CC1` [Example 268, 2-[1-((S)-2-Hydroxy-propionyl)-4-methyl-piperidin-4-yloxy]-5-{2-[6-methoxy-5-(4-oxetan-3-yl-piperazin-1-yl)-pyridin-2-ylamino]-pyrimidin-4-yl}-benzonitrile], the IC50 is below 100 nM at TBK1 and 100 to 1000 nM at IKKε.

`COc1cc(Nc2nccc(-c3ccc(OC4CCN(C(=O)[C@H](C)O)CC4(F)F)c(C#N)c3)n2)ccc1C1CCN(C2COC2)CC1` (stereo partly drawn) [Example 311, 2-([3,3-difluoro-1-[(2S)-2-hydroxypropanoyl]piperidin-4-yl]oxy)-5-[2-([3-methoxy-4-[1-(oxetan-3-yl)piperidin-4-yl]phenyl]amino)pyrimidin-4-yl]benzonitrile]: the IC50 on TBK1 and at IKKε was below 100 nM throughout.

As for `COc1nc(Nc2nccc(-c3ccc(NC4CCOCC4)c(C#N)n3)n2)ccc1C(=O)N(C)C` [Example 64, 6-[(4-[6-cyano-5-[(oxan-4-yl)amino]pyridin-2-yl]pyrimidin-2-yl)amino]-2-methoxy-N,N-dimethylpyridine-3-carboxamide], the IC50 at TBK1 and on IKKε was below 100 nM throughout.

Turning to `COc1nc(Nc2nccc(-c3ccc(O[C@H]4CCN(C(=O)[C@H](C)O)CC4(F)F)c(C#N)c3)n2)ccc1N1CCN(C2COC2)CC1` [Example 120, 2-([3,3-difluoro-1-[(2S)-2-hydroxypropanoyl]piperidin-4-yl]oxy)-5-[2-([6-methoxy-5-[4-(oxetan-3-yl)piperazin-1-yl]pyridin-2-yl]amino)pyrimidin-4-yl]benzonitrile], the IC50 at TBK1 and at IKKε was below 100 nM in each case.

Take `C[C@H](O)C(=O)N1CCC(Oc2ccc(-c3ccnc(Nc4cccnc4)n3)cc2C#N)C(F)(F)C1` (stereo partly drawn) [Example 205]: the IC50 at TBK1 and at IKKε was below 100 nM throughout.

In the case of `COc1nc(Nc2nccc(-c3ccc(OC4CCN(C(=O)[C@@H](C)O)CC4(F)F)c(C#N)c3)n2)ccc1C1CCN(C)CC1` (stereo partly drawn) [Example 147, 2-([3,3-difluoro-1-[(2R)-2-hydroxypropanoyl]piperidin-4-yl]oxy)-5-(2-[[6-methoxy-5-(1-methylpiperidin-4-yl)pyridin-2-yl]amino]pyrimidin-4-yl)benzonitrile], the IC50 on TBK1 and at IKKε was below 100 nM throughout.

In the case of `COc1nc(Nc2nccc(-c3ccc(OC4CCNCC4)c(C#N)c3)n2)ccc1C(=O)N(C)C` [Example 72, 6-([4-[3-cyano-4-(piperidin-4-yloxy)phenyl]pyrimidin-2-yl]amino)-2-methoxy-N,N-dimethylpyridine-3-carboxamide], the IC50 at TBK1 and on IKKε was below 100 nM throughout.

As for `CN(C)C(=O)c1ccc(Nc2nccc(-c3ccc(OC4CCOCC4)c(C#N)c3)n2)cn1` [Example 23, 5-([4-[3-cyano-4-(oxan-4-yloxy)phenyl]pyrimidin-2-yl]amino)-N,N-dimethylpyridine-2-carboxamide], the IC50 on TBK1 and at IKKε was below 100 nM throughout.

For `COc1nc(Nc2nccc(-c3ccc(OC4CCOCC4)c(C#N)c3)n2)ccc1C(=O)N1CC2CCC1CO2` (stereo not drawn) [Example 11, 5-(2-[[6-methoxy-5-([2-oxa-5-azabicyclo[2.2.2]octan-5-yl]carbonyl)pyridin-2-yl]amino]pyrimidin-4-yl)-2-(oxan-4-yloxy)benzonitrile], the IC50 on TBK1 and on IKKε was below 100 nM throughout.
